In patent US20250122202A1, “EGFR INHIBITOR, PREPARATION METHOD THEREFOR AND USE THEREOF” (SHANDONG NEW TIME PHARMACEUTICAL CO., LTD., priority 2021, published 2025):
Like-named read-outs stand apart in the source and are kept apart here.

Tests used:
[1] = biological target: EGFR (D770-N771 ins NPG T790M) kinase (Homo sapiens (Human), UniProt P00533, INS770NPG/T790M); experiment: In-vitro enzyme experiment 1 (HTRF kinase assay), EGFR D770-N771 ins NPG T790M; assay type: biochemical
Method: The specific experiment was as follows: • 1. Preparation of 1× concentration kinase buffer • 1 volume of 5 times concentration of an enzyme buffer diluted with 4 volumes of distilled water; 5 mM magnesium chloride; 1 mM DTT; and 1 mM MnCl2. • 2. Test method of activity of compound • a) a compound diluent was transferred to each well of an assay plate (784075, Greiner) using Echo 550; • b) the assay plate was sealed and centrifuged at 1,000 g for 1 min; • c) 2×EGFR (D770-N771 ins NPG T790M) was prepared in a 1× kinase buffer; • d) 5 μl of the 2×EGFR (D770-N771 ins NPG T790M) was added to a 384-well assay plate (784075, Greiner); • e) the assay plate was centrifuged at 1,000 g for 30 s and incubated at room temperature for 10 min; • f) 2× TK-substrate-biotin (2 μM) and ATP were added to the 1× kinase buffer and mixed; • g) the reaction was started after adding 5 μl of the TK-substrate-biotin (2 μM) and ATP mixture; • h) the assay plate was centrifuged at 1,000 g for 30 s; and the assay plate was sealed and incubated at room temperature for 40 min; • i) 4× Sa-XL 665 was prepared in an HTRF detection buffer; • j) 5 μl of the Sa-XL 665 and 5 μl of a TK-antibody-cryptate were added to each well of the assay plate; • k) the assay plate was centrifuged at 1,000 g for 30 s and incubated at room temperature for 1 h; and • l) fluorescence signals at 615 nm (cryptate) and 665 nm (XL665) were read on an Envision 2104 reader. • 3. Data analysis • 3.1 Calculation of ratio (665/615 nm) of each well • 3.2 Calculation of inhibition rate
[formula] • 3.3 Calculation of IC50 value of compound and drawing dose-effect curve of compound • IC50 values were calculated using GraphPad 6.0 by applying a non-linear regression curve (dose-effect relationship-variable slope) of the logarithm of the compound concentration versus the inhibition rate.
Y=lowest value+(highest value−lowest value)/(1+10^((Log IC50−X)×slope)) • X: logarithm of inhibitor concentration; and Y: inhibition rate. • 3.4 Double test report • 3.4.1 After one tester completed a report, another tester again checked the report to ensure that data analysis was correct. • 3.4.2 The data was exported from the software and manually analyzed. • 3.4.2.1 The rate was converted into the inhibition rate. All the IC50 values were first calculated with the inhibition rate using Prism GraphPad 6.0. • 3.4.2.2 Then the IC50 value was recalculated using the ratio to check the accuracy of the analysis. • 3.4.3 The number of all the compounds was ensured to be correct.

[2] = biological target: EGFR D770-N771 ins NPG kinase (Homo sapiens (Human), UniProt P00533, INS770NPG); experiment: In-vitro enzyme experiment 1 (HTRF kinase assay), D770-N771 ins NPG kinase; assay type: biochemical
[3] = system: KC-1474:PC-9 EGFR-Del19/T790M/C797S; experiment: Cell proliferation inhibition experiment (CCK-8), KC-1474; assay type: cell-based; conditions: Homo sapiens, 72 h
Excerpt: (§1) Inhibition rate %=[(A0−AS)/(A0−AC)]×100%.

[4] = system: KC-0178:NCI-1975 EGFR-L858R/T790M/C797S; experiment: Cell proliferation inhibition experiment (CCK-8), KC-0178; assay type: cell-based; conditions: Homo sapiens, 72 h
Excerpt: as §1

H1975 EGFR-L858R/T790M = experiment: Cell proliferation inhibition experiment (CCK-8), H1975; assay type: cell-based; conditions: Homo sapiens, NCI-H1975, 72 h
Excerpt: as §1

[5] = system: KC-1474 cell subcutaneous transplantation tumor; experiment: In-vivo drug efficacy study, KC-1474 cell subcutaneous transplantation tumor in NPG mice; conditions: for tumor volume inhibition rate (TGITV) / tumor weight inhibition rate (TGITW): 39 days, end of experiment
Method: Female SPF NPG mice weighed 19-22 g were used. The experimental animals were provided by Beijing Vitalstar Biotechnology Co., Ltd. with the experimental animal production license number SCXK (Jing) 2019-0002 and the experimental animal quality certification number of No.110341211100087928.
KC-1474 cells used in the experiment were cultured in a 5% CO2 37° C. incubator with an RPMI1640 medium supplemented with 10% FBS and […] of puromycin. Before the cells were continuously cultured for ten passages, the KC-1474 cells were adjusted to a concentration of 1×10^8/mL, and mixed with Matrigel at a volume ratio of 1:1, and the mixture was inoculated subcutaneously into the right lateral thorax of the NPG mice at 0.1 mL/mouse with 5×10^6 cells per mouse.
When the mean tumor volume of the mice reached about 100-130 mm^3, according to the tumor volume and weight, all the mice were randomly divided into […] group respectively: a model group (V), an example 60 compound oral administration group (po), an example 60 compound intravenous injection low-dose group (L), and an example 60 compound intravenous injection medium-dose group (M). The mice in all the groups were administrated once daily. The administration started on the day of the grouping and continued for 39 days. The mice in the model group were intravenously injected with the same volume of a solvent. The solvent was prepared by adding 2 g of polyethylene glycol-15 hydroxystearate (HS15) into 4 mL of dimethyl sulfoxide (DMSO), then adding 40 mL of purified water, and filtering an obtained mixture by using a 0.22-μm sterilizing filter. At the end of the experiment or the humane endpoint, the animals were euthanized using sodium pentobarbital for anesthesia.
Tumor volume was measured once during the grouping, once per week after the grouping using a vernier caliper, and before the euthanasia. A method for measuring the tumor volume was measuring the long diameter and the short diameter of a tumor using the vernier caliper.
The tumor volume was calculated by the formula: tumor volume=0.5×long diameter×short diameter^2.
(Ti: mean tumor volume of mice in the treatment groups on day i of the administration and T0: mean tumor volume of the mice in the treatment group on day 0 of the administration; and Vi: mean tumor volume of the mice in the model group on day i of the administration and V0: mean tumor volume of the mice in the model group on day 0 of the administration).
At the end of the experiment, the tumor tissue was stripped after the animals were euthanized, the tumor weight was weighed, and the tumor weight inhibition rate was calculated according to the following formula:
TGITW(%)=(Wmodel group−Wtreatment group)/Wmodel group×100%, wherein the W means tumor weight.
Original data was analyzed and the results were expressed as mean±standard deviation (mean±SD). At the same time, the tumor volume and the tumor weight were subjected to statistical analysis. AP<0.05 was considered to be a significant difference.

A549 EGFR-WT = experiment: Cell proliferation inhibition experiment (CCK-8), A549; conditions: Homo sapiens, A549, 72 h, read-out: cell proliferation inhibition IC50 (μM) A549, 72 h, CCK-8

Chain of EGFR (D770-N771 ins NPG T790M) kinase (P00533 other isoform, or with tags, fused parts or gaps T790M/del 1-668/ins NPG behind 770 limits assumed): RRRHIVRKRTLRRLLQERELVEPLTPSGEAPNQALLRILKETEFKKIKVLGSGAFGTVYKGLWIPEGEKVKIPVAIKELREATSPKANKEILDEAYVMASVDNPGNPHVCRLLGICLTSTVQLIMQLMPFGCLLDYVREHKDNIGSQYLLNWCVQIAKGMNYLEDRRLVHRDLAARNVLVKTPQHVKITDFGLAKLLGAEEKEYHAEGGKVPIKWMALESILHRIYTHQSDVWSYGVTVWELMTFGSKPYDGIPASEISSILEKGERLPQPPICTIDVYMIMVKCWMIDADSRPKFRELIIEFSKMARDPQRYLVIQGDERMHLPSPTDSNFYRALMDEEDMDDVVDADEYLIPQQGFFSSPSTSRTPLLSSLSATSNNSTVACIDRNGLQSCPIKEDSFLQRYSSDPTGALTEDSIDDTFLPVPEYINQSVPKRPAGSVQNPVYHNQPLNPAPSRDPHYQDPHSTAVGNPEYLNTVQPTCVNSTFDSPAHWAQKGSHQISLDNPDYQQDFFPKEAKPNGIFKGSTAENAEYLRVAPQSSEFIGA
Chain of EGFR D770-N771 ins NPG kinase (P00533 other isoform, or with tags, fused parts or gaps del 1-668/ins NPG behind 770 limits assumed): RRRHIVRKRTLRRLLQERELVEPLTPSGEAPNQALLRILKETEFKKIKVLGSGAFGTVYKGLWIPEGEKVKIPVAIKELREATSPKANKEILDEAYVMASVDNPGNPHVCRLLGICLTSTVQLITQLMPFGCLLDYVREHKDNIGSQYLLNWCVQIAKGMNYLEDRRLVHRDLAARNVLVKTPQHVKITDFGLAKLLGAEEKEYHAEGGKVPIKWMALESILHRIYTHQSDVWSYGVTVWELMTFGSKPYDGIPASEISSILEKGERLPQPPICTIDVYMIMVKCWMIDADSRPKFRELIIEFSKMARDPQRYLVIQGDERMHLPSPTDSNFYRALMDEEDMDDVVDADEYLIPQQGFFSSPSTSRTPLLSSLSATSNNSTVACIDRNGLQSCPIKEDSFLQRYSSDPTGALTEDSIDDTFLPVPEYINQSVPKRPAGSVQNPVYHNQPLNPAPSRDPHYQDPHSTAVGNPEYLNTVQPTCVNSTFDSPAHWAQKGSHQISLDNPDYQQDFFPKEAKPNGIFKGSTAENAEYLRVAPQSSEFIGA

CN1CCN(c2ccc(Nc3nc(N[C@H]4CC[C@@H](CO)CC4)c4c(C(=O)c5ccc(F)cc5)c[nH]c4n3)cc2)CC1 [Example 60]
IC50 [1]: 8.8 nM | IC50 [2]: 2.82 nM | IC50 [3]: < 0.1 µM | IC50 [4]: 1 to 2 µM | IC50 (H1975 EGFR-L858R/T790M): 0.1 to 1 µM | tumor volume inhibition rate (TGITV) ([5]; L group, 3 mg/kg qd iv): 31% | tumor weight inhibition rate (TGITW) ([5]; L group, 3 mg/kg qd iv): 22% | tumor volume inhibition rate (TGITV) ([5]; M group, 10 mg/kg qd iv): 57% | tumor weight inhibition rate (TGITW) ([5]; M group, 10 mg/kg qd iv): 61% | animal condition during the administration and observation ([5]; all groups, qd for 39 days): no diarrhea, vomiting, or rash | tumor volume inhibition rate (TGITV) ([5]; po group, 20 mg/kg qd po): 28% | tumor weight inhibition rate (TGITW) ([5]; po group, 20 mg/kg qd po): 21% | IC50 (A549 EGFR-WT): 0.1 to 1 µM | IC50 (A549 EGFR-WT; Table 5 numeric): 0.23 µM
